Data from patent publication US10167262B2, “Herbicidal substituted 3-arylpyrazoles” (FMC CORPORATION, priority 2014, dated 2019).

Experiments:
Format in all cases: in vivo
[1] = test system: ducksalad (Heteranthera limosa); test: Test B flooded paddy test, plant response rating 0-100; settings: Flood, 250 g ai/ha; scale 0 to 100 (0 no effect, 100 complete control); 13 to 15 days
Summary of the method: (§1)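 In-water treatment: compound dosed into 3 cm flood over soil, water level unchanged throughout. Controls run alongside; visual assessment at day 13–15.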

rice (Oryza sativa) = test: as above; settings: Flood, 250 g ai/ha; scale 0 to 100 (0 no effect, 100 complete control); 13 to 15 days
Summary of the method: as §1

[2] = test system: sedge, umbrella (small-flower umbrella sedge, Cyperus difformis); test: as above; settings: Flood, 250 g ai/ha; scale 0 to 100 (0 no effect, 100 complete control); 13 to 15 days
Summary of the method: as §1

[3] = test system: bermudagrass (Cynodon dactylon); test: Test C postemergence greenhouse test, plant response rating 0-100; settings: for Plant response rating, Bermudagrass: scale 0 to 100
Summary of the method: (§2)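 First, plants were raised in a sphagnum peat, vermiculite and nutrient medium to 1–4 leaves. Next, formulated test compounds were applied over the foliage. Finally, after 13–15 greenhouse days, injury was compared with controls and scored 0–100.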

[4] = test system: canarygrass (Phalaris minor); test: as above; settings: for Plant response rating, Canarygrass: scale 0 to 100
Summary of the method: as §2

[5] = test system: cocklebur (common cocklebur, Xanthium strumarium); test: as above; settings: for Plant response rating, Cocklebur: scale 0 to 100
Summary of the method: as §2

[6] = test system: deadnettle (henbit deadnettle, Lamium amplexicaule); test: as above; settings: for Plant response rating, Deadnettle: scale 0 to 100
Summary of the method: as §2

[7] = test system: downy bromegrass (Bromus tectorum); test: as above; settings: for Plant response rating, Bromegrass, Downy: scale 0 to 100
Summary of the method: as §2

[8] = test system: goosegrass (Eleusine indica); test: as above; settings: for Plant response rating, Goosegrass: scale 0 to 100
Summary of the method: as §2

[9] = test system: green foxtail (Setaria viridis); test: as above; settings: for Plant response rating, Foxtail, Green: scale 0 to 100
Summary of the method: as §2

[10] = test system: surinam grass (Brachiaria decumbens); test: as above; settings: for Plant response rating, Surinam Grass: scale 0 to 100
Summary of the method: as §2

[11] = test system: windgrass (Apera spica-venti); test: as above; settings: for Plant response rating, Windgrass: scale 0 to 100
Summary of the method: as §2

[12] = test system: winter barley (Hordeum vulgare); test: as above; settings: for Plant response rating, Barley: scale 0 to 100
Summary of the method: as §2

[13] = test system: woolly cupgrass (Eriochloa villosa); test: as above; settings: for Plant response rating, Cupgrass, Woolly: scale 0 to 100
Summary of the method: as §2

SMILES: CC(C)n1cc(C(=O)c2ccccc2)c(-c2cc(Cl)cc(Cl)c2)n1 [Compound 44]
- Plant response rating, Ducksalad [1]: 0
- Plant response rating, Rice (rice (Oryza sativa)): 0
- Plant response rating, Sedge, Umbrella [2]: 0
- Plant response rating (0 to 100), Bermudagrass ([3]; 31 g ai/ha): 0
- Plant response rating (0 to 100), Bermudagrass ([3]; 62 g ai/ha): 0
- Plant response rating (0 to 100), Bermudagrass ([3]; 125 g ai/ha): 0
- Plant response rating, Bermudagrass ([3]; 250 g ai/ha): 0
- Plant response rating (0 to 100), Canarygrass ([4]; 31 g ai/ha): 0
- Plant response rating (0 to 100), Canarygrass ([4]; 62 g ai/ha): 0
- Plant response rating (0 to 100), Canarygrass ([4]; 125 g ai/ha): 0
- Plant response rating, Canarygrass ([4]; 250 g ai/ha): 0
- Plant response rating (0 to 100), Cocklebur ([5]; 31 g ai/ha): 0
- Plant response rating (0 to 100), Cocklebur ([5]; 62 g ai/ha): 0
- Plant response rating (0 to 100), Cocklebur ([5]; 125 g ai/ha): 10
- Plant response rating, Cocklebur ([5]; 250 g ai/ha): 30
- Plant response rating (0 to 100), Deadnettle ([6]; 31 g ai/ha): 0
- Plant response rating (0 to 100), Deadnettle ([6]; 62 g ai/ha): 0
- Plant response rating (0 to 100), Deadnettle ([6]; 125 g ai/ha): 0
- Plant response rating, Deadnettle ([6]; 250 g ai/ha): 0
- Plant response rating (0 to 100), Bromegrass, Downy ([7]; 31 g ai/ha): 0
- Plant response rating (0 to 100), Bromegrass, Downy ([7]; 62 g ai/ha): 0
- Plant response rating (0 to 100), Bromegrass, Downy ([7]; 125 g ai/ha): 0
- Plant response rating, Bromegrass, Downy ([7]; 250 g ai/ha): 0
- Plant response rating (0 to 100), Goosegrass ([8]; 31 g ai/ha): 0
- Plant response rating (0 to 100), Goosegrass ([8]; 62 g ai/ha): 0
- Plant response rating (0 to 100), Goosegrass ([8]; 125 g ai/ha): 0
- Plant response rating, Goosegrass ([8]; 250 g ai/ha): 0
- Plant response rating (0 to 100), Foxtail, Green ([9]; 31 g ai/ha): 0
- Plant response rating (0 to 100), Foxtail, Green ([9]; 62 g ai/ha): 0
- Plant response rating (0 to 100), Foxtail, Green ([9]; 125 g ai/ha): 0
- Plant response rating, Foxtail, Green ([9]; 250 g ai/ha): 0
- Plant response rating (0 to 100), Surinam Grass ([10]; 62 g ai/ha): 0
- Plant response rating (0 to 100), Surinam Grass ([10]; 125 g ai/ha): 0
- Plant response rating, Surinam Grass ([10]; 250 g ai/ha): 0
- Plant response rating (0 to 100), Windgrass ([11]; 62 g ai/ha): 0
- Plant response rating (0 to 100), Windgrass ([11]; 125 g ai/ha): 0
- Plant response rating, Windgrass ([11]; 250 g ai/ha): 0
- Plant response rating (0 to 100), Barley ([12]; 31 g ai/ha): 0
- Plant response rating (0 to 100), Barley ([12]; 62 g ai/ha): 0
- Plant response rating (0 to 100), Barley ([12]; 125 g ai/ha): 0
- Plant response rating, Barley ([12]; 250 g ai/ha): 0
- Plant response rating (0 to 100), Cupgrass, Woolly ([13]; 31 g ai/ha): 0
- Plant response rating (0 to 100), Cupgrass, Woolly ([13]; 62 g ai/ha): 5
- Plant response rating (0 to 100), Cupgrass, Woolly ([13]; 125 g ai/ha): 5
- Plant response rating, Cupgrass, Woolly ([13]; 250 g ai/ha): 5

SMILES: Cn1cc(C(=O)c2ccccc2)c(-c2cc(Br)cc(Br)c2)n1 [Compound 53]
- Plant response rating, Ducksalad [1]: 0
- Plant response rating, Rice (rice (Oryza sativa)): 0
- Plant response rating, Sedge, Umbrella [2]: 40
- Plant response rating (0 to 100), Bermudagrass ([3]; 62 g ai/ha): 5
- Plant response rating (0 to 100), Bermudagrass ([3]; 125 g ai/ha): 5
- Plant response rating, Bermudagrass ([3]; 250 g ai/ha): 5
- Plant response rating, Bermudagrass ([3]; 500 g ai/ha): 5
- Plant response rating (0 to 100), Canarygrass ([4]; 62 g ai/ha): 0
- Plant response rating (0 to 100), Canarygrass ([4]; 125 g ai/ha): 0
- Plant response rating, Canarygrass ([4]; 250 g ai/ha): 0
- Plant response rating, Canarygrass ([4]; 500 g ai/ha): 0
- Plant response rating (0 to 100), Cocklebur ([5]; 62 g ai/ha): 5
- Plant response rating (0 to 100), Cocklebur ([5]; 125 g ai/ha): 10
- Plant response rating, Cocklebur ([5]; 250 g ai/ha): 10
- Plant response rating, Cocklebur ([5]; 500 g ai/ha): 15
- Plant response rating (0 to 100), Deadnettle ([6]; 62 g ai/ha): 0
- Plant response rating (0 to 100), Deadnettle ([6]; 125 g ai/ha): 0
- Plant response rating, Deadnettle ([6]; 250 g ai/ha): 0
- Plant response rating, Deadnettle ([6]; 500 g ai/ha): 0
- Plant response rating (0 to 100), Bromegrass, Downy ([7]; 62 g ai/ha): 0
- Plant response rating (0 to 100), Bromegrass, Downy ([7]; 125 g ai/ha): 0
- Plant response rating, Bromegrass, Downy ([7]; 250 g ai/ha): 0
- Plant response rating, Bromegrass, Downy ([7]; 500 g ai/ha): 0
- Plant response rating (0 to 100), Goosegrass ([8]; 62 g ai/ha): 5
- Plant response rating (0 to 100), Goosegrass ([8]; 125 g ai/ha): 5
- Plant response rating, Goosegrass ([8]; 250 g ai/ha): 5
- Plant response rating, Goosegrass ([8]; 500 g ai/ha): 5
- Plant response rating (0 to 100), Foxtail, Green ([9]; 62 g ai/ha): 0
- Plant response rating (0 to 100), Foxtail, Green ([9]; 125 g ai/ha): 0
- Plant response rating, Foxtail, Green ([9]; 250 g ai/ha): 0
- Plant response rating, Foxtail, Green ([9]; 500 g ai/ha): 0
- Plant response rating (0 to 100), Surinam Grass ([10]; 62 g ai/ha): 0
- Plant response rating (0 to 100), Surinam Grass ([10]; 125 g ai/ha): 0
- Plant response rating, Surinam Grass ([10]; 250 g ai/ha): 0
- Plant response rating, Surinam Grass ([10]; 500 g ai/ha): 0
- Plant response rating (0 to 100), Windgrass ([11]; 62 g ai/ha): 0
- Plant response rating (0 to 100), Windgrass ([11]; 125 g ai/ha): 0
- Plant response rating, Windgrass ([11]; 250 g ai/ha): 0
- Plant response rating, Windgrass ([11]; 500 g ai/ha): 0
- Plant response rating (0 to 100), Barley ([12]; 62 g ai/ha): 0
- Plant response rating (0 to 100), Barley ([12]; 125 g ai/ha): 0
- Plant response rating, Barley ([12]; 250 g ai/ha): 0
- Plant response rating, Barley ([12]; 500 g ai/ha): 0
- Plant response rating (0 to 100), Cupgrass, Woolly ([13]; 62 g ai/ha): 5
- Plant response rating (0 to 100), Cupgrass, Woolly ([13]; 125 g ai/ha): 5
- Plant response rating, Cupgrass, Woolly ([13]; 250 g ai/ha): 5
- Plant response rating, Cupgrass, Woolly ([13]; 500 g ai/ha): 5
